These results are taken from patent US6235731A, “Fused imidazopyridine derivatives as antihyperlipidemic agents” (Takeda Chemical Industries, Ltd., priority 1996, dated 2001).

In one experiment the test system is Golden Syrian hamsters. As to the kind of experiment: Cholesterol lowering activity in Golden hamster. The following applies: Mesocricetus auratus, po, 96 h, 20 mg/kg/d orally, once daily for 4 days. The class given is in vivo, Golden Syrian hamster. The procedure: Cholesterol lowering activity in Golden hamster Male Golden Syrian hamsters (110-130 g) were maintained freely on water and a laboratory diet (CE-2, Clea Japan Inc., Tokyo). […] Blood was taken from orbital sinus and plasma total cholesterol and triglyceride were measured an automatic analyzer (Hitachi 7070, Hitachi Ltd., Tokyo) using commercial kits (Wako Pure Chemical Industries, Osaka), and plasma HDL-cholesterol using a commercial kit (Kyowa Medex Co., Ltd., Tokyo) before and after the treatment of compound. Non-HDL cholesterol was calculated by subtracting HDL-cholesterol from total cholesterol. |Non-HDL-C (non-HDL-cholesterol): [total cholesterol]-[HDL-cholesterol] |TG: triglyceride

A further experiment has as its system HepG2 cells. As to the kind of experiment: Increase in LDL-binding to HepG2 cells. As to conditions: 10 μM test compound, 20 hours, specific human [125I]LDL binding, normalized by protein, read-out: LDL binding (% of control). It counts as cell-based. The procedure:
Increase in LDL-binding to HepG2 cells LDL-binding was measured according to the method of J. L. Goldstein. HepG2 cells were purchased from ATCC (American type culture collection) and seeded in 6-well plate with collagen coating (Sumitomo Bakelite), and cultured in Eagle's minimum essential medium (MEM) containing 10%-fetal bovine serum at 37° C. for 4 days. […] After washing with phosphate buffered saline cells were incubated with MEM containing 25 mM-HEPES and 1%-bovine serum albumin (fatty acid free) in the presence of human [^125 I]LDL (4 μg/ml) at 6° C. for 2 hours. After washing cells bound [^125 I]LDL was dissociated with dextran sulfate and the radioactivity was measured (total binding). [^125 I]LDL binding to cells was also measured in the presence of LDL (300 μg/ml) as a non-specific binding (NSB). Specific [^125 I]LDL-binding was calculated by subtracting NSB from total binding and was normalized by protein content measured by the method of lowry. Data was expressed as percentage of the control.

Another experiment deals with Wistar fatty rats. As to the kind of experiment: Lipid-lowering effect in Wistar fatty rats. It counts as in vivo, Wistar fatty rat. As to conditions: 30 mg/kg/day by stomach tube, 2 weeks, plasma, Mean ± SD (n = 6). The procedure: Lipid-lowering effect in Wistar fatty rats
Male Waistar fatty rats were maintained on free access to normal diet (CE-2, Clea Japan) and water. Body weights were measured at 10 weeks of age and the blood was taken from the orbital sinus and determined for plasma total cholesterol (TC), triglyceride (TG), glucose, and HDL-cholesterol (HDL-C) with Wako Pure Chemical and Kyowa Medex kits using an automatic analyzer (Hitachi 7070). Non-HDL-cholesterol (non-HDL-C) was calculated by subtracting HDL-cholesterol from total cholesterol.
The rats were divided into 2 groups (n=6) and 30 mg/kg/day of the test compound (Example 22) in 0.5% methylcellulose solution was administered by a stomach tube to one of the groups once daily for 2 weeks (test group). 0.5% Methylcellulose solution only was similarly administered to the other group (control group). On day 14, body weights were measured again and the blood was taken from the orbital sinus and determined for plasma total cholesterol, HDL-cholesterol, triglyceride, and glucose in the same manner as before.

Setting [1] is: plasma triglyceride, read-out: TG (% of control).
The mark [2] stands for this setting: plasma, [total cholesterol]-[HDL-cholesterol], read-out: Non-HDL-C (% of control).

Structures can show the parent of a compound that is named as a salt. Where two headings read alike, the source gives them in different places.

Turning to `O=C(NCCCCN1CCC(Cc2ccccc2)CC1)C1=Cc2cnc3cccc(n23)S1` [Example 28, N-[4-(4-benzylpiperidin-1-yl)butan-1-yl]-5-thia-1,8b-diazaacenaphthylene-4-carboxamide Dihydrochloride], the response vs control in vivo at 20 mg/kg came to 61.3% in the experiment on Golden Syrian hamsters (setting [1]) and 62.9% in the experiment with Golden Syrian hamsters (setting [2]). Also, the activity at 10 µM in the experiment with HepG2 cells was found to be 194%.

`O=C(NCCCC1CCN(CCCc2ccccc2)CC1)C1=Cc2cnc3cccc(n23)S1` [Example 46, N-[3-(1-(3-phenylpropan-1-yl)piperidin-4-yl)propan-1-yl]-5-thia-1,8b-diazaacenaphthylene-4-carboxamide Dihydrochloride]: the results for the response vs control in vivo at 20 mg/kg in the experiment with Golden Syrian hamsters (setting [1]) and with Golden Syrian hamsters (setting [2]) were 72.4% and 69.6%, respectively. For the same compound, the activity at 10 µM with HepG2 cells was 166%.

On to `O=C(NC1CCN(CCCc2ccccc2)CC1)C1=Cc2cnc3cccc(n23)S1` [Example 36, N-[1-(3-phenylpropan-1-yl)piperidin-4-yl]-5-thia-1,8b-diazaacenaphthylene-4-carboxamide Dihydrochloride], for which the response vs control in vivo at 20 mg/kg with Golden Syrian hamsters (setting [1]) came out at 74.7%; with Golden Syrian hamsters (setting [2]) it was 61.9%. Further, in the experiment with HepG2 cells, the activity at 10 µM turned out to be 218%.

For the compound `O=C(NCC1CCN(CCCc2ccccc2)CC1)C1=Cc2cnc3cccc(n23)S1` [Example 22, N-[1-(3-phenylpropan-1-yl)piperidin-4-ylmethyl]-5-thia-1,8b-diazaacenaphthylene-4-carboxamide Dihydrochloride], the “TG” value in the experiment with Wistar fatty rats (* P < 0.05 vs control group (324.7 ± 74.2)) came out at 258.3 ± 38.4 mg/dL. The “Glucose” value with Wistar fatty rats (* P < 0.05 vs control group (366.8 ± 72.0)) was found to be 268.2 ± 81.9 mg/dL. For the same compound, in the experiment on Wistar fatty rats (** P < 0.01 vs control group (39.9 ± 3.7)), the “Non-HDL-C” value is 30.0 ± 5.2 mg/dL. Moreover, the figures for the response vs control in vivo at 20 mg/kg in the experiment on Golden Syrian hamsters (setting [1]) and in the experiment on Golden Syrian hamsters (setting [2]) were 62.3% and 58.8%, respectively. Further, the activity at 10 µM in the experiment with HepG2 cells worked out at 126%.
